# Source: article PMC7403104 (Antiviral Research, 2020)
# What was measured:
# [1] = biological target: YFV polymerase (NS5 RdRp) (Yellow fever virus, UniProt P03314); test: biochemical
# [2] = tested on: flaviviral polymerases (DENV3, TBEV, JEV, WNV, ZIKV, YFV); format: biochemical, flaviviruses
# [3] = tested on: six flaviviral polymerases (NS5 proteins of DENV3, TBEV, JEV, WNV, ZIKV, YFV); format: biochemical, flaviviruses
# YFV polymerase (NS5 RdRp), sequence (P03314 2507-3411 limits assumed): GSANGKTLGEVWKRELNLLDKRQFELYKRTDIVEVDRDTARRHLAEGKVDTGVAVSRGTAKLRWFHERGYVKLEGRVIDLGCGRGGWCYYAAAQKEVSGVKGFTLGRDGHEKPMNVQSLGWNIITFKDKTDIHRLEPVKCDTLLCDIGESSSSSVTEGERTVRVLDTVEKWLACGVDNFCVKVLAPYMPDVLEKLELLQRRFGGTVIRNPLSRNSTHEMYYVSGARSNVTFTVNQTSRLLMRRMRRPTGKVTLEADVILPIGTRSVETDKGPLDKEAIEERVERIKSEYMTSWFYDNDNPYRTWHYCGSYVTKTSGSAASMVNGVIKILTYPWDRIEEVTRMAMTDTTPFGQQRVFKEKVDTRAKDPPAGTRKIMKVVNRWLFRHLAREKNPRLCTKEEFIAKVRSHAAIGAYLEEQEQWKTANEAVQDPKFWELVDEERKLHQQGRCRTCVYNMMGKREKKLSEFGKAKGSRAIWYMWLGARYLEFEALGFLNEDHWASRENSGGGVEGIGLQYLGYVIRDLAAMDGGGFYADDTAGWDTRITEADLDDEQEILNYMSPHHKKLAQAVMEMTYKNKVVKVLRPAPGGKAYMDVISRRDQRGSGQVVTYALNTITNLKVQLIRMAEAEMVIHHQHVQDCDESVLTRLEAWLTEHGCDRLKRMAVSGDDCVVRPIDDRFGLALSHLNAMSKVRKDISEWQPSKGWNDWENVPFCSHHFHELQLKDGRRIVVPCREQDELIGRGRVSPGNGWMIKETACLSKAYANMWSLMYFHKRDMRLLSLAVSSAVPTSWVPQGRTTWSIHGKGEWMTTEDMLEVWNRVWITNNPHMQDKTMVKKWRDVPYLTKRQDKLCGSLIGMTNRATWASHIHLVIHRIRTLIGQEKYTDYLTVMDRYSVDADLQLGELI
structure (smiles),measurement,setting,value
"CCC(CC)COC(=O)[C@H](C)N[P@](=O)(OC[C@H]1O[C@@](C#N)(c2ccc3c(N)ncnn23)[C@H](O)[C@@H]1O)Oc1ccccc1 [remdesivir, Remdesivir]",IC50,[1],260 ± 30 nM
same,"IC50s range in words, flaviviral RdRps",[2],hundreds of nanomolar to single digit micromolar
same,IC50,"[2]; read-out: IC50 range, all the tested flaviviral polymerases",200 to 2200 nM
same,incorporation into newly synthesized RNA chain / chain termination,[3],able to incorporate several (five) remdesivir molecules into the newly synthesized RNA chain and finish the primer elongation reaction
